Source: patent US11274083B2, “Substituted thiophenyl uracils, salts thereof and the use thereof as herbicidal agents” (Syngenta Crop Protection AG, priority 2017, dated 2022)

Key:
Assay type in all cases: in vivo
Triticum aestivum = experiment: Crop compatibility post-emergence, greenhouse pot test; settings: application rate 20 g/ha
Summary of the method: (§1)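 Visual % damage rating versus untreated plants (100% = plants dead, 0% = as control), taken about 3 weeks post-treatment. Spray applied to foliage at one-leaf stage (2–3 weeks from sowing) as WP/EC formulation in water plus 0.5% additive, 600 L/ha; greenhouse pots, sandy loam.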

Oryza sativa = experiment: as above
Summary of the method: as §1

Polygonum convolvulus [1] = experiment: Herbicidal action post-emergence, greenhouse pot test; settings: application rate 80 g/ha
Summary of the method: (§2)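 Weeds were sown in sandy loam and grown in a greenhouse for 2 to 3 weeks, then sprayed at the one-leaf stage with WP or EC formulations plus 0.5% additive at 600 L/ha water, at 80 g/ha or lower. Efficacy was scored visually about 3 weeks later against untreated controls.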

Viola tricolor [2] = experiment: as above; settings: application rate 80 g/ha
Summary of the method: as §2

Stellaria media [3] = experiment: as above; settings: application rate 80 g/ha
Summary of the method: as §2

Veronica persica [4] = experiment: as above; settings: application rate 80 g/ha
Summary of the method: as §2

Abutilon theophrasti [5] = experiment: as above
Summary of the method: as §2

Pharbitis purpurea [6] = experiment: as above
Summary of the method: as §2

Amaranthus retroflexus [7] = experiment: as above
Summary of the method: as §2

Setaria viridis [8] = experiment: as above
Summary of the method: as §2

Echinochloa crus-galli [9] = experiment: as above; settings: application rate 80 g/ha
Summary of the method: as §2

Matricaria inodora [10] = experiment: as above; settings: application rate 80 g/ha
Summary of the method: as §2

Polygonum convolvulus [11] = experiment: Herbicidal action pre-emergence, greenhouse pot test; settings: application rate 80 g/ha
Summary of the method: (§3)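 Seeds were sown in pots and covered with soil, then compounds formulated as WP or EC were sprayed onto the soil surface as aqueous suspension or emulsion with 0.5% additive at 600 L/ha water, 320 g/ha or lower. After about 3 weeks in the greenhouse, efficacy was scored visually as % versus untreated controls.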

Viola tricolor [12] = experiment: as above; settings: application rate 80 g/ha
Summary of the method: as §3

Stellaria media [13] = experiment: as above; settings: application rate 80 g/ha
Summary of the method: as §3

Veronica persica [14] = experiment: as above
Summary of the method: as §3

Abutilon theophrasti [15] = experiment: as above; settings: application rate 80 g/ha
Summary of the method: as §3

Pharbitis purpurea [16] = experiment: as above; settings: application rate 320 g/ha
Summary of the method: as §3

Amaranthus retroflexus [17] = experiment: as above
Summary of the method: as §3

Setaria viridis [18] = experiment: as above; settings: application rate 80 g/ha
Summary of the method: as §3

Avena fatua = experiment: as above; settings: application rate 320 g/ha
Summary of the method: as §3

Echinochloa crus-galli [19] = experiment: as above; settings: application rate 320 g/ha
Summary of the method: as §3

Cyperus esculentus = experiment: as above; settings: application rate 320 g/ha
Summary of the method: as §3

Hordeum murinum = experiment: as above; settings: application rate 320 g/ha
Summary of the method: as §3

Matricaria inodora [20] = experiment: as above; settings: application rate 80 g/ha
Description: Seeds of mono- and dicotyledonous weeds and crop plants were laid out in plastic or organic plant pots and covered with soil. The compounds of the invention formulated in the form of wettable powders (WP) or as emulsion concentrates (EC) were then applied to the surface of the covering soil as an aqueous suspension or emulsion with addition of 0.5% additive at a water application rate equivalent to 600 L/ha. After the treatment, the pots were placed in a greenhouse and kept under good growth conditions for the test plants. After about 3 weeks, the efficacy of the preparations was scored visually as a percentage by comparison with untreated controls. For example, 100% efficacy=plants have died. 0% efficacy=like control plants. Tables B1 to B17 below show the efficacies of selected compounds of the general formula (I) […] aforementioned trial method.

Lolium rigidum [21] = experiment: Herbicidal action post-emergence, greenhouse pot test; settings: application rate 80 g/ha
Summary of the method: as §2

Alopecurus myosuroides [22] = experiment: as above; settings: application rate 80 g/ha, scored visually after about 3 weeks vs untreated controls
Summary of the method: as §2

Lolium rigidum [23] = experiment: Herbicidal action pre-emergence, greenhouse pot test; settings: application rate 320 g/ha
Summary of the method: as §3

Alopecurus myosuroides [24] = experiment: as above; settings: application rate 320 g/ha
Summary of the method: as §3

Compound	Triticum aestivum (Efficacy in %) (Triticum aestivum) [%]	Polygonum convolvulus (Efficacy in %) (Polygonum convolvulus [1]) [%]	Viola tricolor (Efficacy in %) (Viola tricolor [2]) [%]	Stellaria media (Efficacy in %) (Stellaria media [3]) [%]	Veronica persica (Efficacy in %) (Veronica persica [4]) [%]	Echinochloa crus-galli (Efficacy in %) (Echinochloa crus-galli [9]) [%]	Matricaria inodora (Efficacy in %) (Matricaria inodora [10]) [%]	Polygonum convolvulus (Efficacy in %) (Polygonum convolvulus [11]) [%]	Viola tricolor (Efficacy in %) (Viola tricolor [12]) [%]	Stellaria media (Efficacy in %) (Stellaria media [13]) [%]	Abutilon theophrasti (Efficacy in %) (Abutilon theophrasti [15]) [%]	Pharbitis purpurea (Efficacy in %) (Pharbitis purpurea [16]) [%]	Setaria viridis (Efficacy in %) (Setaria viridis [18]) [%]	Echinochloa crus-galli (Efficacy in %) (Echinochloa crus-galli [19]) [%]	Cyperus esculentus (Efficacy in %) (Cyperus esculentus) [%]	Hordeum murinum (Efficacy in %) (Hordeum murinum) [%]	Matricaria inodora (Efficacy in %) (Matricaria inodora [20]) [%]	further results
COC(=O)C(C)OC(=O)C(C)Sc1cc(-n2c(=O)cc(C(F)(F)F)n(C)c2=O)c(F)cc1Cl (centres unmarked) [I.1-72]	20	100	100	100	100	100	100	100	100	100	100	100	100	100	100	80	100	Oryza sativa (Efficacy in %) (Oryza sativa; application rate 20 g/ha): 10%; Abutilon theophrasti (Efficacy in %) (Abutilon theophrasti [5]; application rate 20 g/ha): 100%; Pharbitis purpurea (Efficacy in %) (Pharbitis purpurea [6]; application rate 20 g/ha): 100%; Amaranthus retroflexus (Efficacy in %) (Amaranthus retroflexus [7]; application rate 20 g/ha): 100%; Setaria viridis (Efficacy in %) (Setaria viridis [8]; application rate 20 g/ha): 100%; Veronica persica (Efficacy in %) (Veronica persica [14]; application rate 80 g/ha): 100%; Amaranthus retroflexus (Efficacy in %) (Amaranthus retroflexus [17]; application rate 20 g/ha): 100%; Avena fatua (Efficacy in %) (Avena fatua): 90%
COC(=O)CC(C)OC(=O)C(C)Sc1cc(-n2c(=O)cc(C(F)(F)F)n(C)c2=O)c(F)cc1Cl (centres unmarked) [I.1-22]	20	100	100	100	100	100	100	100	100	100	100	100	100	100	90	100	100	Oryza sativa (Efficacy in %) (Oryza sativa; application rate 5 g/ha): 0%; Abutilon theophrasti (Efficacy in %) (Abutilon theophrasti [5]; application rate 80 g/ha): 100%; Pharbitis purpurea (Efficacy in %) (Pharbitis purpurea [6]; application rate 80 g/ha): 100%; Amaranthus retroflexus (Efficacy in %) (Amaranthus retroflexus [7]; application rate 80 g/ha): 100%; Lolium rigidum (Efficacy in %) (Lolium rigidum [21]): 90%; Setaria viridis (Efficacy in %) (Setaria viridis [8]; application rate 80 g/ha): 100%; Alopecurus myosuroides (Efficacy in %) (Alopecurus myosuroides [22]): 80%; Veronica persica (Efficacy in %) (Veronica persica [14]; application rate 320 g/ha): 100%; Amaranthus retroflexus (Efficacy in %) (Amaranthus retroflexus [17]; application rate 80 g/ha): 100%; Lolium rigidum (Efficacy in %) (Lolium rigidum [23]): 100%; Alopecurus myosuroides (Efficacy in %) (Alopecurus myosuroides [24]): 80%
